Reference: ChEMBL document CHEMBL4765482, “Novel Sigma 1 Receptor Antagonists as Potential Therapeutics for Pain Management” (J Med Chem, 2021)
Activity calls are given as the source filed them.

Assays:
[1] = Intrinsic clearance in rat liver microsomes at 10 uM incubated for 1 hr in presence of NADPH by LC-MS/MS analysis; assay type: ADME, Microsome; conditions: read-out: CLH
[2] = Metabolic stability in human liver microsomes assessed as half-life at 10 uM incubated for 1 hr in presence of NADPH by LC-MS/MS analysis; assay type: ADME, Microsome
[3] = Metabolic stability in rat liver microsomes assessed as half-life at 10 uM incubated for 1 hr in presence of NADPH by LC-MS/MS analysis; assay type: ADME, Microsome
[4] = Intrinsic clearance in human liver microsomes at 10 uM incubated for 1 hr in presence of NADPH by LC-MS/MS analysis; assay type: ADME, Microsome; conditions: read-out: CLH
[5] = Displacement of [3H]-DTG from sigma-2 receptor in guinea pig brain membrane incubated for 1 hr by liquid scintillation counting method; assay type: cell membranes, Cavia porcellus
[6] = molecular target: T1, Sigma intracellular receptor 2 (Homo sapiens, UniProt Q5BJF2); assay: Displacement of [3H]-DTG from sigma-2 receptor in human Jurkat cell membrane incubated for 1 hr by liquid scintillation counting method; assay type: cell membranes
[7] = molecular target: T2, Sigma non-opioid intracellular receptor 1 (Homo sapiens, UniProt Q99720); assay: Displacement of [3H]-pentazocine from sigma-1 receptor in human Jurkat cell membrane incubated for 2 hr by liquid scintillation counting method; assay type: cell membranes
[8] = molecular target: hERG (KCNH2) (Homo sapiens, UniProt Q12809); assay: Binding affinity to human ERG at 1 uM relative to control; assay type: cell-based; conditions: HEK293 cells, read-out: Activity
[9] = molecular target: T3, Sigma non-opioid intracellular receptor 1 (Cavia porcellus, UniProt Q60492); assay: Displacement of [3H]-(+)-pentazocine from sigma-1 receptor in guinea pig brain membranes incubated for 1 hr by liquid scintillation counting method; assay type: cell membranes, Membrane
[10] = MRT (0 to infinity) in Sprague-Dawley rat plasma at 10 mg/kg, ip after 0.25 to 4 hrs by LC-MS/MS analysis; assay type: ADME, organism-based; conditions: time 0.25-4 hrs
[11] = molecular target: Sigma non-opioid intracellular receptor 1 (Cavia porcellus) (UniProt Q60492); assay: Ratio of Ki for displacement of [3H]-(+)-pentazocine from sigma-1 receptor to Ki for displacement of [3H]-(+)-pentazocine from sigma-1 receptor in guinea pig brain membranes in presence of phenytoin; assay type: cell membranes; conditions: Membrane
[12] = Toxicity in Sprague-Dawley rat assessed as effect on motor coordination at 10 to 20 mg/kg, ip measured at 30 to 120 mins post treatment by rotarod test; assay type: organism-based; conditions: in vivo, dose lower 10 mg/kg, time lower 30 min, dose upper 20 mg/kg, time upper 120 min
[13] = molecular target: Mu-type opioid receptor (Homo sapiens) (UniProt P35372); assay: Displacement of [3H]-Diprenorphine from recombinant human full-length mu opiod receptor expressed in […] cells at 1 uM incubated for 60 mins by scintillation counting method; assay type: cell-based; conditions: HEK293
[14] = molecular target: T3, Sigma non-opioid intracellular receptor 1
[15] = system: Rattus norvegicus; assay: Analgesic activity in Sprague-Dawley rat model of paclitaxel-induced neuropathic pain assessed as reduction in cold hyperalgesia by measuring increase in paw withdrawal latency at 20 to 40 mg/kg, ip measured at 1 to 2 hrs post dosing by Von Frey assay relative to control; assay type: functional; set-up: scale not given: the % may be the effect or the level left; conditions: dose 20-40 mg/kg, time 1-2 hrs
[16] = Tmax in Sprague-Dawley rat plasma at 10 mg/kg, ip measured after 0.25 to 4 hrs by LC-MS/MS analysis; assay type: ADME, organism-based; conditions: time 0.25-4 hrs
[17] = molecular target: Kappa-type opioid receptor (Homo sapiens) (UniProt P41145); assay: Displacement of [3H]-Diprenorphine from recombinant human full-length kappa opiod receptor expressed in human HEK293 cells at 1 uM incubated for 60 mins by scintillation counting method; assay type: cell-based
[18] = Cmax in Sprague-Dawley rat plasma at 10 mg/kg, ip measured after 0.25 to 4 hrs by LC-MS/MS analysis; assay type: ADME, organism-based; set-up: route intraperitoneal, time upper 4 hrs, time lower 0.25 hrs, dose 10 mg/kg
[19] = system: Rattus norvegicus; assay: Analgesic activity in Sprague-Dawley rat model of paclitaxel-induced neuropathic pain assessed as decrease in mechanical allodynia by measuring reduction in pain threshold at 20 mg/kg, ip measured at 0.5 to 1.5 hrs by Von Frey assay relative to control; assay type: functional; set-up: scale not given: the % may be the effect or the level left; conditions: time 0.5-1.5 hrs
[20] = Half life in Sprague-Dawley rat plasma at 10 mg/kg, ip measured after 0.25 to 4 hrs by LC-MS/MS analysis; assay type: ADME, organism-based; conditions: time 0.25-4 hrs
[21] = Ratio of drug concentration in brain to plasma in Sprague-Dawley rat at 10 mg/kg, ip by LC-MS/MS analysis; assay type: ADME, organism-based; conditions: read-out: BPR
[22] = system: Rattus norvegicus; assay: Antinociceptive activity in formalin-induced Sprague-Dawley rat model of nociceptive pain assessed as decrease in time spent on licking during acute phase at 40 mg/kg, ip administered 30 mins before formalin stimulation and measured at 5 mins interval for 10 mins; assay type: functional, organism-based; conditions: time 40.0 min
[23] = AUC (0 to infinity) in Sprague-Dawley rat plasma at 10 mg/kg, ip after 0.25 to 4 hrs by LC-MS/MS analysis; assay type: ADME, organism-based; set-up: route intraperitoneal, time 0.25-4 hrs, dose 10 mg/kg
[24] = system: Rattus norvegicus; assay: Antinociceptive activity in formalin-induced Sprague-Dawley rat model of nociceptive pain assessed as decrease in time spent on licking during late phase at 20 to 40 mg/kg, ip administered 30 mins before formalin stimulation and measured at 5 mins interval for 10 to 35 mins; assay type: functional, organism-based; conditions: dose 20-40 mg/kg
[25] = molecular target: Delta-type opioid receptor (Homo sapiens) (UniProt P41143); assay: Displacement of [3H]-Naltrindole from recombinant human full-length delta opiod receptor expressed in human HEK293 cells at 1 uM incubated for 60 mins by scintillation counting method; assay type: cell-based
[26] = AUC (0 to 4 hrs) in Sprague-Dawley rat plasma at 10 mg/kg, ip after 0.25 to 4 hrs by LC-MS/MS analysis; assay type: ADME, organism-based; set-up: route intraperitoneal, dose 10 mg/kg, time upper 4 hrs, time lower 0.25 hrs
[27] = molecular target: T1, Sigma intracellular receptor 2; assay: Displacement of [3H]-DTG from sigma-2 receptor in human Jurkat cell membrane at 1000 nM incubated for 1 hr by liquid scintillation counting method relative to control; assay type: cell membranes; conditions: filed as antagonist
[28] = molecular target: T2, Sigma non-opioid intracellular receptor 1; assay: Displacement of [3H]-pentazocine from sigma-1 receptor in human Jurkat cell membrane at 100 nM incubated for 2 hr by liquid scintillation counting method relative to control; assay type: cell membranes

T2 sequence (Q99720 whole entry): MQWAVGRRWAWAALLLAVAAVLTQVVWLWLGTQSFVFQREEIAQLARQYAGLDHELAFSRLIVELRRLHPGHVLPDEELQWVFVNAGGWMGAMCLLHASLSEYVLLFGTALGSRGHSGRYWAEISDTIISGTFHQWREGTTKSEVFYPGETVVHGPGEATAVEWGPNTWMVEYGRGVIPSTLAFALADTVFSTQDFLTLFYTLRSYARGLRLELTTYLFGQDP
T3 sequence (Q60492 whole entry): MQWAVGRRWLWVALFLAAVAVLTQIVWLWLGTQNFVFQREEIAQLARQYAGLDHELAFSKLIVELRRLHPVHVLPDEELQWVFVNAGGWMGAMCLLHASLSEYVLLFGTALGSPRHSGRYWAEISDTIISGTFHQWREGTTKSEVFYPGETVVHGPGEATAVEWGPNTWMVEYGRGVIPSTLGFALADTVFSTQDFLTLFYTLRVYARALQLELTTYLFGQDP
T1 sequence (Q5BJF2 whole entry): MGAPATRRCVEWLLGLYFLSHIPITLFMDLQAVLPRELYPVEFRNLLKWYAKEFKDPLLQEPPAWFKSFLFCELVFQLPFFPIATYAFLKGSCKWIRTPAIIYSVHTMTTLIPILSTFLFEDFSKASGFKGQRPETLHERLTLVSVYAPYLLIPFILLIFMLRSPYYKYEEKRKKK
hERG (KCNH2), sequence (Q12809 whole entry): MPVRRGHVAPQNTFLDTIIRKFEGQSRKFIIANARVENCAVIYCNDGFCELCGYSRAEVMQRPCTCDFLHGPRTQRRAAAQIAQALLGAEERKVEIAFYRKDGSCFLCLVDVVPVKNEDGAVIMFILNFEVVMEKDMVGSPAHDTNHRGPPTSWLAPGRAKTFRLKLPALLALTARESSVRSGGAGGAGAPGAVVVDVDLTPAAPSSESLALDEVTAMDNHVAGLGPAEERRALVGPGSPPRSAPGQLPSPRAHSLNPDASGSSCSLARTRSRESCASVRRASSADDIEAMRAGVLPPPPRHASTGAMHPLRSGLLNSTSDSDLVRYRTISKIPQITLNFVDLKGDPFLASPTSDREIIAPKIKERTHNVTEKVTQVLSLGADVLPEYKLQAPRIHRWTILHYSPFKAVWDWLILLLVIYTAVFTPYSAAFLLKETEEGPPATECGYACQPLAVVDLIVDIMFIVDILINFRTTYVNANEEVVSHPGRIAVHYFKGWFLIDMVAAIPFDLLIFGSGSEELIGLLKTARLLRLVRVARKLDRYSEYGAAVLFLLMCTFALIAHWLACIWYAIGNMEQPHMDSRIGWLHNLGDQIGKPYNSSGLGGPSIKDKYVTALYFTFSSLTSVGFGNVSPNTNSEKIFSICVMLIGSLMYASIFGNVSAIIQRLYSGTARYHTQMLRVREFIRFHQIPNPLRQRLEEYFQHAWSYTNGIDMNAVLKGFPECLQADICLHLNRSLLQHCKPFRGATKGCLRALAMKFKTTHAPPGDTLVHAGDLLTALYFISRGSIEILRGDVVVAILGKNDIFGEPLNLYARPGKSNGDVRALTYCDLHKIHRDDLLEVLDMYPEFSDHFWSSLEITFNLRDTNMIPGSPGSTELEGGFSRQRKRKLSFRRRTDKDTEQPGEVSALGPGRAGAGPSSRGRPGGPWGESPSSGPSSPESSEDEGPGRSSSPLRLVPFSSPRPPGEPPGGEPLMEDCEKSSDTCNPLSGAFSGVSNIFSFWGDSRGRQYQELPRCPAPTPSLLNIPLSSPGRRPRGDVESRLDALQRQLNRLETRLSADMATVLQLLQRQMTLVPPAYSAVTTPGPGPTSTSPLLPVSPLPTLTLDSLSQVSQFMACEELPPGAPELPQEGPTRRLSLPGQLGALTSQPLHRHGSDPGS
Sigma non-opioid intracellular receptor 1 (Cavia porcellus), sequence (Q60492 whole entry): as the sequence (Q60492 whole entry) above
Kappa-type opioid receptor (Homo sapiens), sequence (P41145 whole entry): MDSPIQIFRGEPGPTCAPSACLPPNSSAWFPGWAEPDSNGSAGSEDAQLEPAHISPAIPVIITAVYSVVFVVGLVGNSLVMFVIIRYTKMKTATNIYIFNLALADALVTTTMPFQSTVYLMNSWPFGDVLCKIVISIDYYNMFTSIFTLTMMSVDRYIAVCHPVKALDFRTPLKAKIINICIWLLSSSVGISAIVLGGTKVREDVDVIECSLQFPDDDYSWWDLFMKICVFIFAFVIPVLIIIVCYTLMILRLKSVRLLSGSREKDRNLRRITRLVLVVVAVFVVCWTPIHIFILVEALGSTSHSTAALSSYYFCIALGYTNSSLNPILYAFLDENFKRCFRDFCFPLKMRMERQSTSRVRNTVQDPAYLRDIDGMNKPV
Delta-type opioid receptor (Homo sapiens), sequence (P41143 whole entry): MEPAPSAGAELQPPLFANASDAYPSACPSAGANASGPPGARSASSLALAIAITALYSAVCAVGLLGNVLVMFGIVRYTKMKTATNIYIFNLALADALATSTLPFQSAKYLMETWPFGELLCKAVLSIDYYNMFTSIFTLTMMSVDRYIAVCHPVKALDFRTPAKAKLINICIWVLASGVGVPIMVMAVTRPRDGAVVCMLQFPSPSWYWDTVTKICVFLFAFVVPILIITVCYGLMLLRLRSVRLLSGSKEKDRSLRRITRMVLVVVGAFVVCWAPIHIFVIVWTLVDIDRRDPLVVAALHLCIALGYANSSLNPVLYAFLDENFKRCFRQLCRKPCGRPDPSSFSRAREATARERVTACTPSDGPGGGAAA
Mu-type opioid receptor (Homo sapiens), sequence (P35372 whole entry): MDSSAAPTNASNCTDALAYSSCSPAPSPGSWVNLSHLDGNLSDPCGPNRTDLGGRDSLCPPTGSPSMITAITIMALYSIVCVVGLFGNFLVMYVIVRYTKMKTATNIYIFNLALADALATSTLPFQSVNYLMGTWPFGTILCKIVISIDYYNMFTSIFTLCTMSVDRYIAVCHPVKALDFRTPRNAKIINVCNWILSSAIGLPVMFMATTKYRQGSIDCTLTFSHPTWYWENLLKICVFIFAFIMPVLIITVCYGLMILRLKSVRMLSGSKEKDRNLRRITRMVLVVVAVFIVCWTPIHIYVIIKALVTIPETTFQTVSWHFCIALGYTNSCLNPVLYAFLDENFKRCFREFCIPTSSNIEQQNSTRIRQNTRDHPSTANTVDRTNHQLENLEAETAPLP

Row | Compound | microsomal CLint at 10 µM [1] | half-life at 10 µM [2] | half-life at 10 µM [3] | microsomal CLint at 10 µM [4] | Ki [5] | Ki [6] | further results
1 | Cc1cc(-c2nc(CN3CCCC3)nn2C)ccc1C(F)(F)F | 263 µL/min/mg | 74.9 min | 2.6 min | 9.3 µL/min/mg | – | – | –
2 | Cn1nc(CN2CCOCC2)nc1-c1ccc(C(C)(C)C)cc1 | – | – | – | – | > 1000 nM | – | –
3 | CC(C)c1ccc(-c2nc(CN3CCCC3)nn2C)cc1 | – | – | – | – | – | 1000 nM | Ki [7]: 96 nM
4 | Cn1nc(CN2CCCC2)nc1-c1cccc(C2(C(F)(F)F)CC2)c1 | 144 µL/min/mg | 87.6 min | 4.8 min | 7.9 µL/min/mg | – | – | –
5 | Cn1nc(CN2CCC(Cc3ccccc3)CC2)nc1-c1ccc(C(C)(C)C)cc1 | – | – | – | – | 57 nM | – | –
6 | Cn1nc(CN2CCCC2)nc1-c1ccc(C(C)(C)C)cc1 | 72 µL/min/mg | 120 min | 9.6 min | 5.8 µL/min/mg | 474 nM | > 1000 nM | activity at 1 µM [8]: 8.4%; Ki [9]: 2.7 nM; MRT inf [10]: 43.8 min; Ratio Ki [11]: 0.8; Activity [12]: Non-Toxic; Activity [13]: inactive; Ki [14]: 3.4 nM; Activity [15]: 120%; Ki [7]: 7.5 nM; Tmax [16]: 15 min; Activity [17]: inactive; Cmax [18]: 932 ng/mL; Activity [19]: 180%; half-life [20]: 33.6 min; Kp [21]: 12; Activity [22]: Active; AUC(0-inf) [23]: 635 ng·h/mL; Activity [24]: Active; Activity [25]: inactive; AUC(0-t) [26]: 633 ng·h/mL
7 | Cn1nc(CN2CCCC2)nc1-c1ccc(C2(C(F)(F)F)CC2)cc1 | 207 µL/min/mg | 172 min | 3.3 min | 4 µL/min/mg | – | – | –
8 | Cn1nc(CN2CCCC2)nc1-c1ccc(Cl)c(Cl)c1 | 135 µL/min/mg | 84.7 min | 5.1 min | 8.2 µL/min/mg | – | – | –
9 | Cc1ncc2n1-c1ccc(Cl)cc1C(c1ccccc1F)=NC2 [MIDAZOLAM] | 293 µL/min/mg | 2.6 min | 2.4 min | 263 µL/min/mg | – | – | –
10 | CN(Cc1nc(-c2ccc(C(C)(C)C)cc2)n(C)n1)CC1CC1 | 196 µL/min/mg | 61.3 min | 3.5 min | 11.3 µL/min/mg | 324 nM | – | –
11 | Cn1nc(CN2CCCC2)nc1-c1ccc(-c2ccccc2)cc1 | – | – | – | – | – | – | Activity [27]: 60%; Ki [7]: 90 nM
12 | Cc1ccc(-c2nc(CN3CCCC3)nn2C)cc1 | – | – | – | – | – | > 1000 nM | Activity [28]: 3%
13 | Cn1nc(CN2CCCC2)nc1-c1ccc2c(c1)CCC2 | – | – | – | – | – | 1000 nM | Activity [28]: 37%
14 | Cn1nc(CN2CCN(CCc3ccccc3)CC2)nc1-c1ccc(C(C)(C)C)cc1 | – | – | – | – | 14 nM | 17 nM | Ki [9]: 10 nM; Ki [7]: 49 nM
15 | CN1CCN(Cc2nc(-c3ccc(C(C)(C)C)cc3)n(C)n2)CC1 | – | – | – | – | > 1000 nM | – | –
16 | O=C(CCCN1CCC(O)(c2ccc(Cl)cc2)CC1)c1ccc(F)cc1 [HALOPERIDOL] | – | – | – | – | 4.7 nM | – | –
17 | Cn1nc(CN2CCN(Cc3ccccc3)CC2)nc1-c1ccc(C(C)(C)C)cc1 | – | – | – | – | 39 nM | – | –
18 | CC(C)n1nc(CN2CCCC2)nc1-c1ccc(C(C)(C)C)cc1 | – | – | – | – | – | – | Ki [7]: 2.2 nM
19 | Cn1nc(CN2CCCC2)nc1-c1cccc(Oc2ccccc2)c1 | – | – | – | – | – | > 1000 nM | Activity [28]: 21%
